Entries after “also recorded” stand apart in the source; their conditions may differ.
What was measured:
isolated rabbit lung = assay: Isolated, bloodlessly perfused and ventilated rabbit lung with U46619-induced acute pulmonary hypertension; conditions: for effect on pulmonary arterial pressure (FIG. 1): U46619-induced pulmonary hypertension, NO 10, 50, 100, 200 ppm cumulatively by inhalation, YC-1 0.1 μM, enhancement at 50, 100, 200 ppm NO, n=6
Description: Model of the Isolated, Bloodlessly Perfused and Ventilated Rabbit Lung
The test animal was anaesthetized by injection of about 700 μl of a mixture of Ketanest and Rompun in the ratio 3:2. The spontaneous breathing of the animal was maintained with this initial anaesthesia. 1 000 I.U. of heparin per kg of bodyweight were injected through the venous access for anticoagulation. For the intubation, 7 ml of Xylocaine were injected into the subcutaneous tissue of the animal's neck. A tube was introduced into the trachea underneath the larynx and was used from this instant onwards to ventilate the animal with ambient air through the ventilating pump (breathing rate: […], tidal volume 30 ml). About 3 ml of the anaesthetic mixture were administered over a period of 15 min. The lungs were then removed by a standard technique; likewise dissection of the pulmonary artery and the ascending aorta.
To make it possible to remove the lung from the body's own perfusion without interruption, the pulmonary artery catheter of the perfusion system was, after incision of the right ventricle, advanced into the pulmonary artery and fixed there by means of the open ligature. After cutting off the apex of the heart and closing the ascending aorta, the lung was artificially perfused with Krebs-Henseleit buffer cooled to 4° C. (the cooling served to reduce metabolism) at 20 ml/min. The ambient air was replaced by a 5% CO2, 15% O2 and 80% N2 gas mixture.
The lung was dissected out of the thorax, and a connector was sutured into the left heart to allow the perfusion circulation to be completed. The lung was suspended on a weighing cell and the perfusion circulation was completed through the connector. The lung perfusate then flowed out through a pressure cascade. The temperature of the complete system was raised to 38° C. and the pressure recording started. In the system, the pulmonary artery pressure, the left ventricular pressure, the ventilation pressure and the weight were recorded continuously. […]

[1] = test system: anaesthetized and ventilated rabbit with oleic acid-induced lung damage; assay: Whole animal model of acute pulmonary hypertension with severe gas exchange impairment through oleic acid (MIGET, haemodynamics); assay type: in vivo; conditions: for effect on pulmonary arterial pressure (FIG. 2) / effect on systemic arterial pressure (FIG. 3): NO 10, 34, 70, 120, 200 ppm by inhalation, YC-1 5 mg infusion over 10 min; for effect on pulmonary arterial pressure (FIG. 2) / effect on systemic arterial pressure (FIG. 3) / effect on arterial oxygenation / oxygenation index (FIG. 6) / effect on intrapulmonary shunting (MIGET, FIG. 5) / effect on perfusion of normally ventilated areas of the lung (normal V/Q, MIGET, FIG. 7) / effect on pulmonary arterial pressure (FIG. 4): n=6; for effect on arterial oxygenation / oxygenation index (FIG. 6): 150 min after oleic acid injection; for intrapulmonary shunting (MIGET): oleic acid (OA) group 33±2 %; for arterial oxygenation: oleic acid (OA) group 123±13 mmHg; for effect on intrapulmonary shunting (MIGET, FIG. 5) / effect on perfusion of normally ventilated areas of the lung (normal V/Q, MIGET, FIG. 7) / effect on pulmonary arterial pressure (FIG. 4): YC-1 5 mg infusion 30-40 min after oleic acid
Description: Whole Animal Model of Acute Pulmonary Hypertension with Severe Gas Exchange Impairment Through Infusion of Oleic Acid
The test animals In the rabbit model were anaesthetized by injection of about 700 μl of a mixture of Ketanest and Rompun in the ratio 3:2. The spontaneous breathing of the animal was maintained with this initial anaesthesia. 1 000 I.U. of heparin per kg of bodyweight were injected for anticoagulation. For the intubation, 7 ml of Xylocaine were injected into the subcutaneous tissue of the animal's neck. A tube was introduced into the trachea underneath the larynx and was used from this instant onwards for ventilation of the animal through the ventilation pump (breathing rate: […], tidal volume 35 ml). The animal underwent standard ventilation with a 50% N2 and a 50% O2 gas mixture. 7 ml/h of the anaesthetic mixture were administered through a Perfusor, which led to a deep analgesia and relaxation of the animal. The left common carotid artery was ligated and punctured for measurement of the arterial pressure. […] Through this port, a 4F balloon catheter was placed in the right ventricle and the right ventricular pressure was recorded. The gas exchange was analysed by the multiple inert gas elimination technique (MIGET). The MIGET is based on elimination and retention of a plurality of inert gases. Central venous infusion thereof in dissolved form into the animal via the ear margin vein was therefore necessary. This infusion solution was prepared by introducing 250 ml of the perfusate without air bubbles into a gas-tight bag. 0.5 ml of liquid halothane was put into this bag through an injection plug. The bag was then filled with a test gas mixture (10% SF6 3.0, 20% cyclopropane 2.0 and 70% ethane 2.5) and the gases were dissolved in the perfusate. 0.15 ml of diethyl ether was injected, followed by 0.7 ml of acetone. This solution was infused continuously at 30 ml/h into the animal during the equilibration period after change of the perfusate. An equilibrium between retention and elimination of the gases was set up within a period of 30-40 min. After this time, 2.5 ml samples were taken simultaneously from the arterial and venous blood by gas-tight 50 ml glass syringes (B-D Yale, Becton, Dickinson & Co, USA). The arterial and the venous sample was then weighed, blanketed with 15 ml of nitrogen gas (ECD grade) and incubated at 38° C. in a shaking water bath (135 min^−1). During this time, an equilibrium, depending on the solubility of the gas, was set up between the gaseous and liquid phase. After the equilibration time had elapsed, the total volume of the syringe was determined and the supernatant gas was transferred into an air-tight 30 ml glass syringe (B-D Yale, Becton, Dickinson & Co, USA) preheated to 38° C. The latter was stored at 38° C. and used for gas chromatographic analysis. Immediately after removal of the arterial and venous perfusate, a sample of the expired air from the isolated lung was taken by a preheated 30 ml glass syringe on an expiratory gas mixing box. This gaseous sample was analysed immediately in a gas chromatograph. The gases were analysed by a computer-assisted calculation through which essentially the following parameters were calculated: shunting (perfusion, unventilated regions of the lung), normal V/Q (perfusion in normally ventilated regions of the lung).
Besides the MIGET data, the following haemodynamic parameters were determined: • pulmonary arterial pressure • systemic arterial pressure • arterial oxygen partial pressure (pO2)
Catheterization of the animal was followed by injection of 50 μg of oleic acid (OA) into the pulmonary artery. The pulmonary arterial pressure rose after this injection from 11-13 mmHg to a stable plateau of 17-18 mmHg. This rise in the pulmonary arterial pressure was accompanied by severe gas exchange impairment essentially characterized by a fall in the arterial oxygenation and a rise in the shunt perfusion (measured by the MIGET). […]

[2] = test system: ventilated patients suffering from acute adult respiratory distress syndrome (ARDS); conditions: inhaled; cited from earlier work
[3] = test system: patients with post-traumatic pulmonary dysfunction; conditions: infusion; 11 patients; cited from earlier work
[4] = test system: rabbit model of acute pulmonary hypertension; conditions: cited from earlier work; for effect on pulmonary hypertension / pulmonary and systemic vasodilatation: systemic (intravenous) administration, in the combination a dose of dipyridamole with no activity per se
[5] = test system: patients with bronchial asthma; conditions: intravenous administration; cited from earlier work
[6] = NO 100 ppm inhaled 30-150 min, YC-1 5 mg infusion 30-40 min

[N]=O [NO, nitric oxide]
effect on pulmonary arterial pressure (FIG. 1) (isolated rabbit lung): dose-dependent reduction in the pulmonary arterial pressure
effect on pulmonary arterial pressure (FIG. 2) ([1]; 50 μg oleic acid): dose-dependent reduction in the pulmonary arterial pressure
effect on systemic arterial pressure (FIG. 3) ([1]; 50 μg oleic acid): remained unchanged; also recorded: did not lead to a dose-dependent reduction in the systemic arterial pressure
effect on arterial oxygenation / oxygenation index (FIG. 6) [1, 6]: significant increase in the arterial oxygenation
pulmonary arterial pressure ([1]; NO 100 ppm inhaled 30-150 min, YC-1 5 mg infusion 30-40 min, oleic acid (OA) group 17.8±1.6 mmHg): 14.5±1.8 mmHg
intrapulmonary shunting (MIGET) [1, 6]: 23±3%
arterial oxygenation [1, 6]: 234±21 mmHg
effect on intrapulmonary shunting (MIGET, FIG. 5) ([1]; NO 100 ppm inhaled 30-150 min): reduction in the intrapulmonary shunting
effect on perfusion of normally ventilated areas of the lung (normal V/Q, MIGET, FIG. 7) ([1]; NO 100 ppm inhaled 30-150 min): significant increase in the perfusion of normally ventilated areas of the lung
effect on pulmonary arterial pressure (FIG. 4) ([1]; NO 100 ppm inhaled 30-150 min): reduction in the pulmonary arterial pressure
effect on gas exchange [2]: improvement in gas exchange

O=[N+]([O-])OCC(CO[N+](=O)[O-])O[N+](=O)[O-] [Ng, 1,2,3-propanetriyl trinitrate]
effect on acute pulmonary hypertension [3]: reduction in the acute pulmonary hypertension
effect on arterial oxygen content [3]: deterioration in the arterial oxygen content

CCCCC[C@H](O)/C=C/[C@@H]1[C@@H](C/C=C\CCCC(=O)O)[C@H]2CO[C@@H]1C2 [U46619]
pulmonary arterial pressure raised by U46619 (isolated rabbit lung; continuous intravascular 70 to 160 pmol/kg min U46619, raised from 6-8 mmHg): 33-35 mmHg

OCc1ccc(-c2nn(Cc3ccccc3)c3ccccc23)o1 [YC-1, 3-(5′-Hydroxymethyl-2′-furyl)-1-benzyl indazole]
effect on pulmonary arterial pressure (FIG. 1) (isolated rabbit lung): no intrinsic effect on the pulmonary arterial pressure
effect on pulmonary arterial pressure (FIG. 2) ([1]; 50 μg oleic acid): no effect on the measured parameters
effect on systemic arterial pressure (FIG. 3) ([1]; 50 μg oleic acid): no effect on the measured parameters
effect on arterial oxygenation / oxygenation index (FIG. 6) [1, 6]: significant effect on the oxygenation index
intrapulmonary shunting (MIGET) [1, 6]: 21±4%
arterial oxygenation [1, 6]: 215±8 mmHg
effect on intrapulmonary shunting (MIGET, FIG. 5) ([1]; NO 100 ppm inhaled 30-150 min): no significant effect on intrapulmonary shunting
effect on perfusion of normally ventilated areas of the lung (normal V/Q, MIGET, FIG. 7) ([1]; NO 100 ppm inhaled 30-150 min): no significant effect on the perfusion of normally ventilated areas of the lung
effect on pulmonary arterial pressure (FIG. 4) ([1]; NO 100 ppm inhaled 30-150 min): no effect on the pulmonary arterial pressure

OCCN(CCO)c1nc(N2CCCCC2)c2nc(N(CCO)CCO)nc(N3CCCCC3)c2n1 [dipyridamole]
effect on pulmonary hypertension / pulmonary and systemic vasodilatation [4]: dose-dependent reduction in the pulmonary and systemic vasodilatation

CCCCCCCC/C=C\CCCCCCCC(=O)O [oleic acid]
intrapulmonary shunting after oleic acid injection ([1]; 50 μg oleic acid): 30-35%
pulmonary arterial pressure plateau after oleic acid injection ([1]; 50 μg oleic acid into the pulmonary artery, rise from 11-13 mmHg): 17-18 mmHg

urodilatin
effect on pressure in the systemic circulation ([4]; intravenous administration): reduces the pressure in the systemic circulation to the same extent
effect on pulmonary hypertension / pulmonary and systemic vasodilatation [4]: dose-dependent reduction in the pulmonary and systemic vasodilatation; also recorded: marked reduction in pulmonary hypertension
effect on ventilatory parameters [5]: improvement in the ventilatory parameters

Source: patent publication US20050181066A1, “Novel use of guanylate cyclase activators for the treatment of respiratory insufficiency” (Altana Pharma AG, priority 2002, published 2005)
